# Calls of active or inactive are those of the source.
# Experiments:
# [1] = biological target: T1, Low molecular weight phosphotyrosine protein phosphatase (Homo sapiens, UniProt P24666); format: functional; settings: read-out: IC50_Mean;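 further: Dose-response confirmation assay measuring inhibition of LMPTP enzyme activity by fluorescence intensity read-out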
# T1 sequence (P24666 whole entry): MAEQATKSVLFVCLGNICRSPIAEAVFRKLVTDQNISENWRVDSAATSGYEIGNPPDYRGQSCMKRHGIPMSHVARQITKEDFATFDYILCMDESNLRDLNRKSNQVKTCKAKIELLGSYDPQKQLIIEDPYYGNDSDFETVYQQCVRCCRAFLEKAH
# [2] = HEK-293T viability loss after treatment – luminescence, T-cell screen hits, cytotoxicity control for TCR NF-kB inhibitor project, dose response (AID 489026); format: functional, cell-based;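 further: cells exposed to compound about 14 hours before the viability readout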
# Coagulation factor XII = biological target: T2, Coagulation factor XII (Homo sapiens, UniProt P00748); format: functional;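 further: activated factor XIIa alpha cleaving a fluorogenic AMC peptide substrate; inhibitor potency from loss of enzyme activity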
# T2 sequence (P00748 whole entry): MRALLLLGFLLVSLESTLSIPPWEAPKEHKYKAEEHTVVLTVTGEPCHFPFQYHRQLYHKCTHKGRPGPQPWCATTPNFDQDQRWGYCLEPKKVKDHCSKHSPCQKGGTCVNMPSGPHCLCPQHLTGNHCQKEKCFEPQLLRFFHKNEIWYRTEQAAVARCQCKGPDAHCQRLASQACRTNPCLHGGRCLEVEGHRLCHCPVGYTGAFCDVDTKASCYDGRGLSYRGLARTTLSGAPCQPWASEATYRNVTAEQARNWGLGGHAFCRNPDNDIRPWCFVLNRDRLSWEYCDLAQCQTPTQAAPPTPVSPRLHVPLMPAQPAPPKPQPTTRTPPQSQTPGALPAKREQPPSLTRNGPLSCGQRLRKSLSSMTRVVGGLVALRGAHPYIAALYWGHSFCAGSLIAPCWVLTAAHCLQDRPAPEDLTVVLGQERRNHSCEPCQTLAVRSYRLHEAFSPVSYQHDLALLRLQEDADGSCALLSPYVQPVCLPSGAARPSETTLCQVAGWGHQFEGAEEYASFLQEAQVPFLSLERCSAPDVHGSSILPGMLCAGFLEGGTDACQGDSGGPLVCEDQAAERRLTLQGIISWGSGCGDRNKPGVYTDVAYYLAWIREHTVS
# [3] = Vero E6 cell cytotoxicity, dose response, cytotoxicity control for non-replicating M. tuberculosis project, secondary assay (AID 492998); format: functional, VeroE6; settings: Vero C1008
# cells = format: functional
# [4] = biological target: T3, Short transient receptor potential channel 4 (Mus musculus, UniProt Q9QUQ5); test: calcium entry via TRPC4 opening agents – cell-based, HEK293 TRPC4/mu-opioid, Fluo-4 calcium, dose response (AID 434937); format: functional
# T3 sequence (Q9QUQ5 whole entry): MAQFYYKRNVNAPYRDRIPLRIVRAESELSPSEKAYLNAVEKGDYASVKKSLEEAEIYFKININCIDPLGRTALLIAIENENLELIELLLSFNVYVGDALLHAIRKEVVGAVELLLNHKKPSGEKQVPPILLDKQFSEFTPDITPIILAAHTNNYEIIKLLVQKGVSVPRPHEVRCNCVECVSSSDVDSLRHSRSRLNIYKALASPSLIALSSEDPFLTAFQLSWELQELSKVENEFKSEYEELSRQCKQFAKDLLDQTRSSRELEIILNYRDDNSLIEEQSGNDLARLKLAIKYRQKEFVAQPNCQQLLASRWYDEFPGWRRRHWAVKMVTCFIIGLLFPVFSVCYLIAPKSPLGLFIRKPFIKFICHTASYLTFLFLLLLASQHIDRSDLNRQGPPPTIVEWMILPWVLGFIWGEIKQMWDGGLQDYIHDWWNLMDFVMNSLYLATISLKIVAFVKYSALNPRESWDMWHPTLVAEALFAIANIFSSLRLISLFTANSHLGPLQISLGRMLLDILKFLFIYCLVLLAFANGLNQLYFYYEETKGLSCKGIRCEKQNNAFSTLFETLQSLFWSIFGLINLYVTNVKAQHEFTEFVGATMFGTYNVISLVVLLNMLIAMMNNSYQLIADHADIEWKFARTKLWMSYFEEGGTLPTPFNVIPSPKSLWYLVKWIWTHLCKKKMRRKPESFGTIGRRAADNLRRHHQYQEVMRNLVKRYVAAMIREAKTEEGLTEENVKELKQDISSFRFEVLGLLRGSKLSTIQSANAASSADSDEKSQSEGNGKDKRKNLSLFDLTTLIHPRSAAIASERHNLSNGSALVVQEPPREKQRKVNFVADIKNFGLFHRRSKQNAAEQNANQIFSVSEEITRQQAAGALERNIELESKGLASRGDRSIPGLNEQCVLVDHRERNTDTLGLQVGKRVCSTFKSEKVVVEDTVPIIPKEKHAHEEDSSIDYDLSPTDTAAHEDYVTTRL
# [5] = NIH3T3 cell viability loss – ATP luminescence, mouse fibroblasts, counter-screen, dose response (AID 2010); format: functional, cell-based;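 further: cells exposed to compound for about 90 hours before reading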
# [6] = Trypanosoma cruzi growth suppression in host cells – NIH3T3 host cells, beta-gal luminescence, confirmation (AID 2044); format: functional, cell-based;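 further: intracellular parasites grown in NIH/3T3 mouse fibroblasts as host cells; luminescent beta-galactosidase reporter signal from transgenic T. cruzi replicating inside host cells; inhibitors lower the luminescence signal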
# [7] = viability of uninfected HEp-2 cells – cell-based, HTS, cytotoxicity control for RSV inhibitor project, dose response (AID 2410); format: functional; settings: human respiratory syncytial virus
# [8] = biological target: Ras and Rab interactor 1/Tyrosine-protein kinase ABL1 (Homo sapiens, UniProt P00519+Q13671); format: functional;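 further: biochemical TR-FRET dose-response test measuring inhibition of binding between Rin1 and Abl proteins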
# Chain of Ras and Rab interactor 1/Tyrosine-protein kinase ABL1 (P00519 whole entry): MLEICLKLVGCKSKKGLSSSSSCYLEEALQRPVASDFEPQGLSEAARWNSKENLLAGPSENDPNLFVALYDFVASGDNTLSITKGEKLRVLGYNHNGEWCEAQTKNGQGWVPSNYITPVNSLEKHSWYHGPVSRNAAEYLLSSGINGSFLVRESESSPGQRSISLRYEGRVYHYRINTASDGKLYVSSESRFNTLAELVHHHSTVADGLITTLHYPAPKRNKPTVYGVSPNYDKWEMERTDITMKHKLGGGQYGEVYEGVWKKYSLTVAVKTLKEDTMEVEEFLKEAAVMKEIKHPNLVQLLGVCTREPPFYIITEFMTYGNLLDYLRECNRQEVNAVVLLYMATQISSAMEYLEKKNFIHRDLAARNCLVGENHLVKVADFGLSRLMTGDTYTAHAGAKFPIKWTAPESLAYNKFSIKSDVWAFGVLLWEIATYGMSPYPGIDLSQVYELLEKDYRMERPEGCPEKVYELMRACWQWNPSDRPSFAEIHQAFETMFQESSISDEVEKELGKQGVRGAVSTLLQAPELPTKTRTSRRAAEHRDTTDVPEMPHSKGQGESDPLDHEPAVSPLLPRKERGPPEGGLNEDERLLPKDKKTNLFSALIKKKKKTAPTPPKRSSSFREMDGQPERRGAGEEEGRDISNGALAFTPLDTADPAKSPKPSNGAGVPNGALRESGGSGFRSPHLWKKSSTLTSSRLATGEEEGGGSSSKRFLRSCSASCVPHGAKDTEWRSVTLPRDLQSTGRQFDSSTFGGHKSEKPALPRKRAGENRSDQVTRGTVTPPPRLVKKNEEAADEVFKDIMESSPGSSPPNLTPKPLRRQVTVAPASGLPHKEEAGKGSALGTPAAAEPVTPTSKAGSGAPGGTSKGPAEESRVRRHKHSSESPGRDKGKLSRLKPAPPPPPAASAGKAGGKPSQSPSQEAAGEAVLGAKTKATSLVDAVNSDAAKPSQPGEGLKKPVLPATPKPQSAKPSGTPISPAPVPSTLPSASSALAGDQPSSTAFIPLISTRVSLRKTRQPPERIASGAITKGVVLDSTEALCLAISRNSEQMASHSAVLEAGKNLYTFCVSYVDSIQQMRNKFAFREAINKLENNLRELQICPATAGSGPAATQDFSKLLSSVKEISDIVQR
# Chain of Ras and Rab interactor 1/Tyrosine-protein kinase ABL1 (Q13671 whole entry): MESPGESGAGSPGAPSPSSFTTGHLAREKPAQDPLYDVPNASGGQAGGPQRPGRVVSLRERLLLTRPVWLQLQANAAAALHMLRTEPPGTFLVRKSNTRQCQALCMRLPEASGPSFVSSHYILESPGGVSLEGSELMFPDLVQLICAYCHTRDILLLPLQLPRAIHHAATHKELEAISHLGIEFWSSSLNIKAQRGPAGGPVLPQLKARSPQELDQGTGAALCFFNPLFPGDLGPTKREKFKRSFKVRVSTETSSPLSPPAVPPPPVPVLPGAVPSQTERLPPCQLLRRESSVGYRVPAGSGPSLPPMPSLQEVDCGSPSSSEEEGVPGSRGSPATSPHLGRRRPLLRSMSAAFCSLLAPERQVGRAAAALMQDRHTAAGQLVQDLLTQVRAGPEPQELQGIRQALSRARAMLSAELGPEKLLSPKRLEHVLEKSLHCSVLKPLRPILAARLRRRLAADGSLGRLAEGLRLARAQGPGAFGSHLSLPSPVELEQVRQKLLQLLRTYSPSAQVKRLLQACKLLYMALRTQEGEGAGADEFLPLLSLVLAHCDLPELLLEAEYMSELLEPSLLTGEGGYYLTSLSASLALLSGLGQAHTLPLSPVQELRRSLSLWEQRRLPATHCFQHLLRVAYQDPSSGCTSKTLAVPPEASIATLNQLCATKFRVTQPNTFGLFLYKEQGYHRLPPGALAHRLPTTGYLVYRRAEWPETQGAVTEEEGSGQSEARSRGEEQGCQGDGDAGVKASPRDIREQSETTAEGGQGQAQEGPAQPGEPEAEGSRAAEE
# [9] = biological target: DNA dC->dU-editing enzyme APOBEC-3A (Homo sapiens, UniProt P31941); test: Dose Response confirmation of small molecule APOBEC3A DNA Deaminase Inhibitors via a fluorescence-based single-stranded DNA deaminase assay. [Related pubchem assays (depositor defined):AID493011, AID493024]; format: functional
# Chain of DNA dC->dU-editing enzyme APOBEC-3A (P31941 whole entry): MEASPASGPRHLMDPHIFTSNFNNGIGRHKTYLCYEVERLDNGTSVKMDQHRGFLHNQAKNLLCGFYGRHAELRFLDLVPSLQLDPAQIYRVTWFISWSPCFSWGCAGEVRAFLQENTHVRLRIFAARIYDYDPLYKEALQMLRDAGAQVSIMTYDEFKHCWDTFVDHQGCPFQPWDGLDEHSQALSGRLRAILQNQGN
# [10] = biological target: DNA dC->dU-editing enzyme APOBEC-3G (Homo sapiens, UniProt Q9HC16); format: functional;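 further: Dose-response counterscreen measuring inhibition of APOBEC3G DNA deaminase activity, run while confirming APOBEC3A inhibitors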
# Chain of DNA dC->dU-editing enzyme APOBEC-3G (Q9HC16 whole entry, the tested form may be a part): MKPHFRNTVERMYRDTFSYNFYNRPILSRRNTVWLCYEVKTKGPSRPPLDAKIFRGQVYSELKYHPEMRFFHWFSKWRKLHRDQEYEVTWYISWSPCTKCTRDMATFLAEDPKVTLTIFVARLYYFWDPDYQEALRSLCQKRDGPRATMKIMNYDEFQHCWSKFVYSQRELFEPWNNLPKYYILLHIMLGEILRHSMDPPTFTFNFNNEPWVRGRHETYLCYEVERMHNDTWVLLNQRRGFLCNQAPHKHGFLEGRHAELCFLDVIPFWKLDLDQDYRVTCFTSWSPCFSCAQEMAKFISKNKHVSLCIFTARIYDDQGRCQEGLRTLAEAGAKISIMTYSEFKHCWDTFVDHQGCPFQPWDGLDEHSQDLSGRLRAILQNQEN
# [11] = biological target: T4, Hepatocyte nuclear factor 4-alpha (Homo sapiens, UniProt P41235); format: functional, cell-based;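 further: biochemical luminescence-based dose-response counterscreen measuring inhibition of HNF4 dimerization, run alongside a screen for blockers of ABHD5–perilipin-5 interaction; split luciferase complementation of HNF4 fusion proteins in cell lysate measuring dimerization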
# T4 sequence (P41235 whole entry): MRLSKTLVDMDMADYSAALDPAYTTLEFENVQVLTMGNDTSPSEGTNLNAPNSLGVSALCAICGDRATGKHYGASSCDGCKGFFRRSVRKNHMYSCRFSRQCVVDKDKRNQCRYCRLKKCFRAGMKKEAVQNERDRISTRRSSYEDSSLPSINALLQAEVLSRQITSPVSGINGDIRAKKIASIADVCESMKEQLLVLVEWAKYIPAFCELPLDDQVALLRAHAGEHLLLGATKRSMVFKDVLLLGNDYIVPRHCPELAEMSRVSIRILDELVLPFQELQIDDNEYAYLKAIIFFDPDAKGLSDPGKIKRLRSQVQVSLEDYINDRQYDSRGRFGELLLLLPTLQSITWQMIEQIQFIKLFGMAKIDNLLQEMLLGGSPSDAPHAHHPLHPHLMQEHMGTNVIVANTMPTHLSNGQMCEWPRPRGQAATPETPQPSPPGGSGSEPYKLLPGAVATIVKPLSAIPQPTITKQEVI
# Melanocortin receptor 4 = Melanocortin receptor 4 (Homo sapiens, UniProt P32245); format: functional, cell-based;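 further: Cell-based assay with luminescence read-out, confirmatory dose-response testing for agonist activity of biased ligands at MC4R; human U2OS cells with tagged receptor and beta-arrestin; potency of agonists that increase receptor coupling to beta-arrestin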
# Chain of Melanocortin receptor 4 (P32245 whole entry): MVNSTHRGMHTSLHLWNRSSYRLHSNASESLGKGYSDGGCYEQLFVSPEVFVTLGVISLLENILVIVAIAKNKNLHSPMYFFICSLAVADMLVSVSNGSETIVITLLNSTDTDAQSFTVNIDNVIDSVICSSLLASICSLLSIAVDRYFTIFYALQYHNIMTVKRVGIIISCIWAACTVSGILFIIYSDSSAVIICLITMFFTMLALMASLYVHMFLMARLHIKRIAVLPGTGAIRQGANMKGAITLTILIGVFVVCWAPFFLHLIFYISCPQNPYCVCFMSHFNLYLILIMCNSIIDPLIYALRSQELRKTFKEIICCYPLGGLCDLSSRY
# H9c2 = test: cells; format: functional, cell-based; settings: Rattus norvegicus, H9c2, Myocardium;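 further: confirmatory concentration-response retest of ultra-high-throughput screening hits for modulation of myocardial damage; cell death induced by hydrogen peroxide oxidative stress; compound pretreatment for 60 min then peroxide exposure for 2 h; potency is for protecting the cells against peroxide damage rather than for killing them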
# [12] = loss of viability in HepG2 cells – cell-based, CellTiter-Glo, cherry-picked, cytotoxicity control for Shn3 inhibitor project, dose response (AID 624134); format: functional
# [13] = reduction of Shn3 3'UTR-driven luciferase in osteoblasts – cell-based, Clone20 osteoblasts, firefly luciferase, cherry-picked, dose response (AID 624132); format: functional;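 further: firefly luciferase luminescence from reporter carrying the Shn3 3'UTR in osteoblasts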
# [14] = non-specific 3'UTR reporter inhibition in Clone20-Shn3RL – cell-based, Renilla luciferase, cherry-picked, counter-screen for Shn3 inhibitor project, dose response (AID 624133); format: functional
# [15] = Luminescence Cell-Based Dose Retest to Confirm Inhibitors of Cancer Stem Cells. [Related pubchem assays (depositor defined):AID2717, AID2721]; format: functional; settings: Homo sapiens
# Protein RecA = biological target: T5, Protein RecA (Mycobacterium tuberculosis, UniProt P9WHJ3); test: Fluorescence Cell-Free Homogeneous Dose Retest to Identify Inhibitors of RecA-Intein Splicing Activity. [Related pubchem assays (depositor defined):AID2097, AID2223, AID489010, AID492950]; format: functional
# T5 sequence (P9WHJ3 whole entry): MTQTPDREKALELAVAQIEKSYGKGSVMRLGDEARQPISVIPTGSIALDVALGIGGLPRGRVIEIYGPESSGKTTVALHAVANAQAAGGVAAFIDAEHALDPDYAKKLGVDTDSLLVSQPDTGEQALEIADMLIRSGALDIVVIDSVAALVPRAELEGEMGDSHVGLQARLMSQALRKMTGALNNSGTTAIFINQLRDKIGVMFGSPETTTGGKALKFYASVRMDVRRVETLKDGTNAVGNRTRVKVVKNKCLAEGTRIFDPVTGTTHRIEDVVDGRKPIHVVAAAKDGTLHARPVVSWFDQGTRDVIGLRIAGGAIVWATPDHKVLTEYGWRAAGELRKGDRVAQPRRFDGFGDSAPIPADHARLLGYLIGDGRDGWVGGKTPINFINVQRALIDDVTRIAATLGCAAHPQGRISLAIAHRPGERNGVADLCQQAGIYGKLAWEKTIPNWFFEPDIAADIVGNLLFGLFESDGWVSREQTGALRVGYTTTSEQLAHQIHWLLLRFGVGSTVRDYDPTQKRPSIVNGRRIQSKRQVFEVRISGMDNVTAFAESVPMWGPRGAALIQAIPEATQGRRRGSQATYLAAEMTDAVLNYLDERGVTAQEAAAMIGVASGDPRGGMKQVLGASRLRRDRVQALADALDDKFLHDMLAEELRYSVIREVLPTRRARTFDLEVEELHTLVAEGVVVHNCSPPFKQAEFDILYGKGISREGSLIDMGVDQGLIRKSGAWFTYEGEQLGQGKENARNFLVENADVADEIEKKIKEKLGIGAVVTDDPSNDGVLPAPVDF
# [16] = biological target: T6, Replicative DNA helicase DnaB (Mycobacterium tuberculosis, UniProt P9WMR3); test: DnaB intein splicing inhibitors, dose response, biochemical, cell-free fluorescence (AID 449749); format: functional
# T6 sequence (P9WMR3 whole entry): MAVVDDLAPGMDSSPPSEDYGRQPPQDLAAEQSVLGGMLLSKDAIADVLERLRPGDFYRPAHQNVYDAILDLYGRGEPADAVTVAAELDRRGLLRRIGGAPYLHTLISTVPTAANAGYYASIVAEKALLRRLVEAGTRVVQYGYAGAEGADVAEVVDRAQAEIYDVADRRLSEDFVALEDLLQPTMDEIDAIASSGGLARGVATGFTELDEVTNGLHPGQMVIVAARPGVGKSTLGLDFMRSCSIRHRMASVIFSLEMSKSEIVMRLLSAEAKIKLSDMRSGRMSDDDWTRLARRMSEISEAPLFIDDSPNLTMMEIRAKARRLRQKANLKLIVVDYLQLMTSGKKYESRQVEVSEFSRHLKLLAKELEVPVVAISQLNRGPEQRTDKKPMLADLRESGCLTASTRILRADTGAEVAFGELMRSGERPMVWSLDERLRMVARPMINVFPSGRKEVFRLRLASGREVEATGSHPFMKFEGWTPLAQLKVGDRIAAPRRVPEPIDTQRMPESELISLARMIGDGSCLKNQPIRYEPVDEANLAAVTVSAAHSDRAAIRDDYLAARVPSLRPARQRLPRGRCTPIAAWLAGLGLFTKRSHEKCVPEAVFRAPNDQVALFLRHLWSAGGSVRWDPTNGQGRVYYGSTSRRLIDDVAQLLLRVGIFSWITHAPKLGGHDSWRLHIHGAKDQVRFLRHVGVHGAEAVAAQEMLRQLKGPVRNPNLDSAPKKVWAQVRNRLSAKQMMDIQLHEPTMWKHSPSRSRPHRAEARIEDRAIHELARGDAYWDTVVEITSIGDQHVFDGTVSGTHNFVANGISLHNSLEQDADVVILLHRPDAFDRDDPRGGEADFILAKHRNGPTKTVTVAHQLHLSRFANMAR
smiles,measurement,setting,value
CCn1cc(C(=O)O)c(=O)c2cc(F)c(N3CCN(C(=S)NC(=O)c4ccccc4Br)CC3)cc21,IC50,[1],4.66 µM (active)
CCOC(=O)c1[nH]c(C)c(C(=O)Nc2cc(Cl)ccc2C)c1C,IC50,[2],> 80 µM (inactive)
CC(=O)Nc1ccc(NC(=O)CCn2c(=S)oc3ccccc32)cc1,IC50,Coagulation factor XII,> 50 µM (inactive)
O=C(N/N=C/c1ccccn1)c1ccccc1,CC50,[3],> 20 µM (active)
same,IC50,cells,> 50 µM (active)
COc1ccc(CCNCc2ccc(SC)cc2)cc1,EC50,[4],5.31 µM (active)
same,EC50,[5],> 60 µM (not active)
same,EC50,[6],0.225 µM (active)
Cc1cccc(N(Cc2ccccc2)C(=O)Cc2ccc(S(=O)(=O)N3CCOCC3)s2)c1,CC50,[7],22 µM (active)
same,IC50,[8],18.6 µM (inactive)
C=CCn1c2ccccc2c2nnc(SCc3[nH]c(=O)[nH]c3C(=O)CCCCC(=O)OCC)nc21,IC50,[8],2.19 µM (active)
CCN1CCN(S(=O)(=O)c2ccc(Cl)c(C(=O)Nc3cc(Cl)ccc3N3CCOCC3)c2)CC1,IC50,[9],5.15 µM (active)
same,IC50,[10],5.78 µM (active)
CCCCN(CC)CCNC(=O)Cn1cc2c(n1)-c1c(oc(C(=O)N3CCCC3)c1C)CC2,EC50,[4],0.267 µM (active)
O=C(NCc1ccccc1)C(c1ccc(C(F)(F)F)cc1)n1c(=O)c(-c2ccco2)nc2ccccc21 (stereo unspecified),IC50,[11],2.02 µM (active)
Brc1cccc(/C=N/Nc2nn[nH]n2)c1,IC50,Coagulation factor XII,> 50 µM (inactive)
Cc1sc2ncnc(NCC(c3ccco3)N3CCCC3)c2c1C (stereo unspecified),EC50,[4],0.0173 µM (active)
COCCN(C(=O)COC(=O)CNC(=O)c1cccs1)c1c(N)n(Cc2ccccc2)c(=O)[nH]c1=O,IC50,[9],8.35 µM (active)
same,IC50,[10],10.8 µM (active)
CC(=O)c1cccc(-c2cnc3c(NC=O)cc(-c4ccccc4F)cn23)c1,EC50,Melanocortin receptor 4,> 89.2 µM (inactive)
same,IC50,H9c2,> 79 µM (inactive)
Cc1ccc2nc(-c3cccc(SC4CCCCC4)c3)c(NCc3ccccc3)n2c1,AC50,[12],> 70 µM (inactive)
same,AC50,[13],3.53 µM (active)
same,AC50,[14],5.3 µM (active)
CCCCCNC(=O)C(c1ccccc1F)n1c(=O)c(-c2ccco2)nc2ccccc21 (stereo unspecified),IC50,[11],0.97 µM (active)
COc1ccc(/C=N/NC(=O)C(C)Sc2ccccn2)cc1[N+](=O)[O-] (stereo unspecified),IC50,[9],6.02 µM (active)
same,IC50,[10],7.71 µM (active)
Cc1cc(C)c(C(CC(=O)c2cccs2)C(C#N)C#N)c(C)c1 (stereo unspecified),AC50,[15],5.08 µM (active)
same,IC50,[11],8.02 µM (active)
same,EC50,Protein RecA,2.31 µM (active)
same,AC50,[16],3.42 µM (active)
